Results from ChEMBL document CHEMBL3286201, “Antileishmanial activity of a series of N²,N⁴-disubstituted quinazoline-2,4-diamines” (J Med Chem, 2014).

Assays:
[1] = Aqueous solubility of the compound at pH 2; format: physicochemical; conditions: buffer
[2] = Cytotoxicity against mouse J774A1 cells after 72 hrs by MTT assay; format: cell-based; conditions: J774.A1, 72 h
Leishmania amazonensis = test: Antileishmanial activity against intracellular amastigote stage of Leishmania amazonensis LV78 infected in mouse J774A1 cells by colorimetric assay; format: functional, organism-based; conditions: LV78, J774.A1
Leishmania donovani [3] = test: Antileishmanial activity against intracellular amastigote stage of Leishmania donovani MHOM/ET/67/L82 infected in mouse J774A1 cells by colorimetric assay; format: functional, organism-based; conditions: MHOM/ET/67/L82, J774.A1
[4] = Distribution coefficient, log D of the compound at pH 7.4; format: physicochemical; conditions: octanol/water
[5] = Distribution coefficient, log D of the compound at pH 3; format: physicochemical; conditions: octanol/water
[6] = Aqueous solubility of the compound at pH 7.4; format: physicochemical; conditions: buffer
[7] = Selectivity index, ratio of EC50 for mouse J774A1 cells to EC50 for intracellular amastigote stage of Leishmania donovani MHOM/ET/67/L82; format: toxicity, cell-based, J774.A1; conditions: read-out: Ratio EC50
[8] = pampa, pH 4
Description: (§1) Passive transcellular permeability of the compound at pH 4 by PAMPA

[9] = pampa, pH 7.4
Description: (§2) Passive transcellular permeability of the compound at pH 7.4 by PAMPA

[10] = Toxicity in BALB/c mouse assessed as tolerated dose treated ip for 5 consecutive doses; format: organism-based; conditions: in vivo
Leishmania donovani [11] = test: Antileishmanial activity against antimony-resistant clinical isolate Leishmania donovani BPK164/1 infected in mouse J774A1 cells by colorimetric assay; format: functional, organism-based; conditions: BPK164/1, J774.A1
Leishmania donovani [12] = test: Antileishmanial activity against clinical isolate Leishmania donovani BPK206/0 infected in mouse J774A1 cells by colorimetric assay; conditions: BPK206/0, J774.A1
physchem [13] = conditions: pampa, pH 4
Description: as §1

physchem [14] = conditions: pampa, pH 7.4
Description: as §2

Papp (physchem [13]) [×10⁻⁶ cm/s] | Papp (physchem [14]) [×10⁻⁶ cm/s] | Compound | solubility [1] [µM] | EC50 [2] [µM] | EC50 (Leishmania amazonensis) [µM] | EC50 (Leishmania donovani [3]) [µM] | logD [4] | logD [5] | solubility [6] [µM] | selectivity ratio [7] | permeability [8] [×10⁻⁶ cm/s] | permeability [9] [×10⁻⁶ cm/s] | MTD at 5 consecutive doses [10] [mg/kg] | EC50 (Leishmania donovani [11]) [µM] | EC50 (Leishmania donovani [12]) [µM]
– | – | CNc1nc(NCc2ccccc2)c2ccccc2n1 | ≥ 30 | 18 | 13 | 1.5 | 3.14 | 2.11 | ≥ 30 | 12 | – | – | – | – | –
– | – | CCCCNc1nc(NCCCC)c2ccccc2n1 | ≥ 30 | 5.4 | 2.1 | 1.8 | 3.89 | 2.91 | ≤ 10 | 3 | 485 | 880 | – | – | –
– | – | COc1cccc2nc(NC(C)C)nc(NCc3ccco3)c12 | ≥ 30 | 18 | 2.7 | 0.97 | 3.35 | 2.53 | ≤ 20 | 19 | 87 | 624 | – | – | –
– | – | Cc1cccc2c(NCc3ccco3)nc(NC(C)C)nc12 | ≥ 30 | > 33 | 4.4 | 4.2 | 3.55 | 1.57 | ≤ 20 | > 7.9 | 45.9 | 666 | – | – | –
– | – | c1ccc(CNc2nc(NCc3ccccc3)c3ccccc3n2)cc1 | ≤ 20 | 5.5 | 1.4 | 0.67 | – | – | ≤ 5 | 8.2 | – | – | – | – | –
– | – | CC(C)Nc1nc(NCc2ccco2)c2ccccc2n1 | ≥ 30 | 17 | 3.7 | 2.5 | 3.15 | 2.18 | ≥ 30 | 6.8 | 62.2 | 883 | – | – | –
– | – | CNc1nc(NCc2ccccc2)nc2ccccc12 | ≥ 30 | 15 | 0.9 | 0.15 | 2.96 | 2 | ≤ 10 | 100 | 57.1 | 1720 | 30 | 2 | 2.8
– | – | Cc1ccc2nc(NC(C)C)nc(NCc3ccco3)c2c1 | ≥ 30 | > 33 | 15 | 4.7 | 3.63 | 1.55 | ≤ 20 | > 7 | 67.2 | 789 | – | – | –
– | – | CC(C)Nc1nc(N(C)C)c2ccccc2n1 | ≥ 30 | > 33 | 19 | 8.9 | 3.13 | 1.64 | ≤ 10 | > 3.7 | 72.3 | 1120 | – | – | –
108 | 130 | NC(=O)N1c2ccccc2C=Cc2ccccc21 [CARBAMAZEPINE] | – | – | – | – | – | – | – | – | – | – | – | – | –
– | – | CCCCNc1nc(NCc2ccccc2)c2ccccc2n1 | – | 5.1 | 1.8 | 0.65 | – | – | ≤ 10 | 7.8 | – | – | – | – | –
– | – | CC(C)Nc1nc(NC2CCCCC2)c2ccccc2n1 | – | – | > 50 | > 50 | – | – | ≤ 20 | – | – | – | – | – | –
– | – | CC(C)Nc1nc(NCc2ccco2)c2cccc(Cl)c2n1 | ≥ 30 | > 33 | 18 | 4.4 | 3.96 | 2.38 | ≤ 5 | > 7.5 | 67.6 | 1330 | – | – | –
– | – | c1ccc(CNc2nc(Nc3ccccc3)c3ccccc3n2)cc1 | ≥ 30 | 5.2 | 2.2 | 0.26 | 4.25 | 2.67 | ≤ 5 | 20 | 412 | 663 | – | – | –
2.2 | 5.2 | CNC(=C[N+](=O)[O-])NCCSCc1ccc(CN(C)C)o1.Cl [RANITIDINE HYDROCHLORIDE] | – | – | – | – | – | – | – | – | – | – | – | – | –
– | – | CC(C)Nc1nc(NCc2ccco2)c2c(Cl)cccc2n1 | ≥ 30 | 25 | 12 | 2.3 | 4.44 | 2.62 | ≤ 10 | 11 | 169 | 1240 | – | – | –
– | – | COc1cc([C@@H]2c3cc4c(cc3[C@H](O)[C@H]3COC(=O)[C@H]23)OCO4)cc(OC)c1OC [PODOFILOX] | – | 0.25 | – | – | – | – | – | – | – | – | – | – | –
– | – | CC(C)Nc1nc(NCc2ccco2)c2cc(Cl)ccc2n1 | ≥ 30 | > 33 | 25 | 2.6 | 3.99 | 2.6 | ≤ 20 | > 13 | 170 | 1630 | – | – | –
– | – | c1ccc(CNc2nc(Nc3ccccc3)nc3ccccc23)cc1 | ≤ 5 | 6.8 | 2.6 | 0.64 | 4.17 | 2.78 | ≤ 5 | 11 | 271 | 1480 | – | – | –
– | – | COc1ccc2nc(NC(C)C)nc(NCc3ccco3)c2c1 | ≥ 30 | 14 | 9.6 | 0.74 | 3.58 | 2.95 | ≥ 30 | 19 | 80.2 | 1010 | – | – | –
– | – | COc1ccc2c(NCc3ccco3)nc(NC(C)C)nc2c1 | ≥ 30 | 16 | 10 | 1.2 | 3.7 | 3.11 | ≤ 20 | 13 | 59.2 | 1330 | – | – | –
– | – | Cc1cccc2nc(NC(C)C)nc(NCc3ccco3)c12 | ≥ 30 | 20 | 3.6 | 0.95 | 3.55 | 2.44 | ≤ 10 | 21 | 45.9 | 812 | – | – | –
– | – | CSCCNc1nc(NC(C)C)nc2ccccc12 | ≥ 30 | 20 | 5.1 | 4.3 | 3.02 | 2.06 | ≤ 20 | 4.7 | 28.8 | 1480 | – | – | –
– | – | COc1cccc2c(NCc3ccco3)nc(NC(C)C)nc12 | ≥ 30 | 30 | 7.3 | 3.2 | 3.4 | 2.99 | ≤ 20 | 9.4 | 38.4 | 1060 | – | – | –
– | – | CC(C)Nc1nc(NCC(F)(F)F)c2ccccc2n1 | ≥ 30 | > 33 | 7.6 | 3.7 | 3.19 | 2.4 | ≥ 30 | > 8.9 | 19.7 | 780 | – | – | –
– | – | CC(C)Nc1nc(NCc2ccco2)c2ccc(Cl)cc2n1 | ≥ 30 | > 100 | 23 | 9 | 3.91 | 2.51 | ≤ 20 | > 11 | 103 | 1380 | – | – | –
– | – | FC(F)(F)CNc1nc(NCc2ccco2)c2ccccc2n1 | ≥ 30 | 23 | 5.8 | 3.6 | 4.2 | 2.02 | ≤ 10 | 6.4 | 67.7 | 979 | – | – | –
– | – | OCCNc1nc(NCc2ccco2)c2ccccc2n1 | ≥ 30 | > 33 | > 50 | 25 | 2.19 | 1.48 | ≤ 20 | > 1.3 | 26.4 | 1130 | – | – | –
– | – | CCOC(=O)CNc1nc(NC(C)C)nc2ccccc12 | ≥ 30 | > 33 | 20 | 6.9 | 2.54 | 1.73 | ≤ 20 | > 4.8 | 38.8 | 744 | – | – | –
